From article PMC5829251, “NAD^+ analog reveals PARP-1 substrate-blocking mechanism and allosteric communication from catalytic center to DNA-binding domains” (Nature Communications, 2018) come the findings set out here.

One assay concerns the target T1, PARP-1 (Homo sapiens, UniProt P09874).
T1 construct: Full-length PARP-1 WT (residues 1–1014) was cloned in pET28 vector; made in house; host or cells: E. coli
The experiment in a line: SDS-PAGE PARP-1 activity assay (DNA-dependent automodification). The class given is biochemical. The conditions noted are these: 1 μM DNA, 1 μM protein, 50 μM NAD+; concentration series. As to the method:
The SDS-PAGE activity assay was performed as described[28] using 1 µM protein, 1 μM DNA (18 bp oligonucleotide), 50 µM NAD^+, and various concentrations of BAD and carba-NAD^+ as indicated. Reactions were incubated for 5 min before quenching with SDS-PAGE loading buffer.

In another assay the target is T2, PARP-2 (Homo sapiens, UniProt Q9UGN5).
T2 construct: PARP-2 (isoform 2, residues 1–570) was cloned in pET28 vector; made in house
T2 sequence (Q9UGN5 1-570 isoform Q9UGN5-2): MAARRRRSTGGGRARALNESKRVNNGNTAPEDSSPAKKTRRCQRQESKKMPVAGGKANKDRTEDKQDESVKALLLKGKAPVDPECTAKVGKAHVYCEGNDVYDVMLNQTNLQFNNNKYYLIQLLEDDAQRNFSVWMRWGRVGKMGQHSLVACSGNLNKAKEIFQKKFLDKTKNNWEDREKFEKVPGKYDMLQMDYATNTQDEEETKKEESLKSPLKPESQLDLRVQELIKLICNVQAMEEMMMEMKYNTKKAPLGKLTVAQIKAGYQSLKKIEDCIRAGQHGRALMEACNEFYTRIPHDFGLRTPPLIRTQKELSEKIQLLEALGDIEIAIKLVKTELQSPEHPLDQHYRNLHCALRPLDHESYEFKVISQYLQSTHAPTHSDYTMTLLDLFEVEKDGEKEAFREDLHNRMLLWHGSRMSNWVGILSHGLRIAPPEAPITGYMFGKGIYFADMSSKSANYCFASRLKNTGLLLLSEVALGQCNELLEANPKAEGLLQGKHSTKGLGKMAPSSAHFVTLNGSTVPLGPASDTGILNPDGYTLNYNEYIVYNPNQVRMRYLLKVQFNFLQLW
The experiment in a line: DSF, full-length PARP-2 with or without DNA. The note with it: for TM: Figure 3c, BAD 1250 μM, in °C (unit assumed). The format is binding. On the procedure: (§1) DSF experiments were performed as described, [13] using 5 µM protein, 2.5 µM DNA when indicated and various concentrations of compound (BAD, carba-NAD^+, benzamide, and ADP-ribose) as indicated in Fig. 1 and Fig. 3. Experiments were performed on a Roche LightCycler 480 RT-PCR. Reactions including DNA were performed with a 26- or 28-base pair (bp) unphosphorylated oligonucleotide for PARP-1, a 28-bp 5´-phosphorylated (5´P) oligonucleotide for PARP-2, and a 47-bp oligonucleotide including a central 5´P nick for PARP-3^13 in the following buffer: 25 mM Hepes pH 8.0, 150 mM NaCl, 1 mM EDTA, and 0.1 mM TCEP. Reactions with PARP-3 were conducted at lower ionic strength to allow binding to DNA as described (25 mM Hepes pH 8.0, 50 mM NaCl, 1 mM EDTA and 0.1 mM TCEP)[13]. ΔTM values were calculated by subtracting the TM determined for the protein in the absence of compound from the TM determined in the presence of compound. Experiments were performed in triplicate and a Boltzmann sigmoid was fit to the data to determine the TM values (KaleidaGraph).

For the next assay, the target named is T3, Tankyrase 1 CAT (Homo sapiens, UniProt O95271).
T3 construct: Tankyrase 1 CAT (residues 1093–1327) was cloned in pET24; made in house
T3 sequence (O95271 1093-1327): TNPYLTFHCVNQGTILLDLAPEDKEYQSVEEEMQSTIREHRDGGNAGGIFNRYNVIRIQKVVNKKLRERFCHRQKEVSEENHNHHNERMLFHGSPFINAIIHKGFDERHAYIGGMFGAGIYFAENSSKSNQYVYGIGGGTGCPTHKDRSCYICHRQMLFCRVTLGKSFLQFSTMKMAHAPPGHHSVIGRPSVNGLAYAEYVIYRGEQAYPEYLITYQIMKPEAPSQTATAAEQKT
The experiment in a line: DSF, Tankyrase 1 CAT. The class given is binding. As to the method: as §1
A general note: In DSF a fluorescence change marks the thermal transition of the protein.

The target in the next assay is T4, PARP-1 K633A (Homo sapiens, UniProt P09874, K633A).
T4 construct: Full-length PARP-1 WT (residues 1–1014) was cloned in pET28 vector and site-directed mutagenesis was performed; made in house; host or cells: E. coli
T4 sequence (P09874 whole entry K633A, the tested form may be a part): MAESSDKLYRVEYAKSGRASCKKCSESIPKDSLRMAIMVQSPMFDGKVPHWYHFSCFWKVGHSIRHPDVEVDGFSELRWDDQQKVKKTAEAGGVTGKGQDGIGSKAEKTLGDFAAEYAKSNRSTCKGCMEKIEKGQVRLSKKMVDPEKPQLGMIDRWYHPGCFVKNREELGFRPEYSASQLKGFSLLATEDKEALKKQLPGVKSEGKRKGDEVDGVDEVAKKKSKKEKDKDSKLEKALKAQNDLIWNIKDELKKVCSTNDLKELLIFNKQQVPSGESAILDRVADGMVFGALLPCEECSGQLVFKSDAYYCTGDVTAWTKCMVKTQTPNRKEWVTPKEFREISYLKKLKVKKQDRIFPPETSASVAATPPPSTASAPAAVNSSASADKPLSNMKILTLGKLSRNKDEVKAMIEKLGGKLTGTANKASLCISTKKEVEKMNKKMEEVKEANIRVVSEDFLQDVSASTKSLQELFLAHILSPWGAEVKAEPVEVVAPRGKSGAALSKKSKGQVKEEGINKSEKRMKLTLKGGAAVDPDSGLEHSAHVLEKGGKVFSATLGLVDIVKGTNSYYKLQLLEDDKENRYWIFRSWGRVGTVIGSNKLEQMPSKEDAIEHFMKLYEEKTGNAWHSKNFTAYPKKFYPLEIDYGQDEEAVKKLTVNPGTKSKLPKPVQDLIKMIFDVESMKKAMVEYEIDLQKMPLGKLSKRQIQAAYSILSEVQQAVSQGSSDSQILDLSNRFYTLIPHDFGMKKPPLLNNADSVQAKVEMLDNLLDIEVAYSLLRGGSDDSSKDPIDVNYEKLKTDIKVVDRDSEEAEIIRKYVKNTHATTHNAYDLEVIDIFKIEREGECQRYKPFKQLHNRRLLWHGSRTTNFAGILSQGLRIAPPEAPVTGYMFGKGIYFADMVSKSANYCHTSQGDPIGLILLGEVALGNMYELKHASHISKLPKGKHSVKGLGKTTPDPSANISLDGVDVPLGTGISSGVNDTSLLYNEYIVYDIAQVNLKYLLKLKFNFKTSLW
Kind of assay: DSF, full-length PARP-1 K633A with or without DNA. The format is binding. The conditions noted are these: for TM: Figure 3b, BAD 1250 μM, in °C (unit assumed). On the procedure:
as §1

For assay [1], the target named is T5, full-length PARP-1 WT (Homo sapiens, UniProt P09874).
T5 construct: Full-length PARP-1 WT (residues 1–1014) was cloned in pET28 vector; made in house; host or cells: E. coli
T5 sequence (P09874 whole entry, the tested form may be a part): as the sequence (P09874 whole entry K633A, the tested form may be a part) above, with A633K counted along it
The experiment in a line: DSF, full-length PARP-1 WT with or without DNA. The class given is binding. The conditions noted are these: BAD 1250 μM; for TM: in °C (unit assumed). As to the method:
as §1

For assay [2], the target named is T5, full-length PARP-1 WT. Kind of assay: One-dimensional 1H NMR monitoring BAD protons. The class given is binding. On the procedure:
Full-length PARP-1 WT and a dumbbell DNA containing a central 1-nucleotide gap (5′-[…]-3′)[7], were dialyzed against a modified PBS buffer (222 mM NaCl, 2.7 mM KCl, 200 μM DTT, 10 mM sodium phosphate, pH 7.4). An aliquot of the dialysis PBS buffer was then lyophylized and resuspended in deuterated water (D2O). The NMR samples were prepared by diluting the protein (40 μM final), DNA (40 μM final), and BAD (20 μM final) in the deuterated buffer such that all samples contained 85% D2O final. The samples were incubated 30 min at RT prior to collecting the NMR spectra. ^1H (700.303 MHz) NMR spectra were acquired with a Bruker Avance II 700 spectrometer equipped with a 16.4 T narrowbore magnet and a double-resonance (^1 H/^13 C) cryoprobe. All samples were run using 3 mm NMR tubes (180 µL). 1D experiments were acquired with excitation sculpting to suppress residual water signal. The use of D2O as the primary solvent (85%) removed the signals from amide hydrogens in the region of interest (7–9 ppm), however a low-power T1p filter (70 ms) was necessary after the 90-degree excitation pulse to reduce signals from the non-exchangeable hydrogens arising from the large, slowly tumbling protein and DNA.

In a further assay the target is T6, PARP-3 (Homo sapiens, UniProt Q9Y6F1).
T6 construct: PARP-3 (isoform b, residues 1–533) was cloned in pDEST17 vector; made in house
T6 sequence (Q9Y6F1 1-533): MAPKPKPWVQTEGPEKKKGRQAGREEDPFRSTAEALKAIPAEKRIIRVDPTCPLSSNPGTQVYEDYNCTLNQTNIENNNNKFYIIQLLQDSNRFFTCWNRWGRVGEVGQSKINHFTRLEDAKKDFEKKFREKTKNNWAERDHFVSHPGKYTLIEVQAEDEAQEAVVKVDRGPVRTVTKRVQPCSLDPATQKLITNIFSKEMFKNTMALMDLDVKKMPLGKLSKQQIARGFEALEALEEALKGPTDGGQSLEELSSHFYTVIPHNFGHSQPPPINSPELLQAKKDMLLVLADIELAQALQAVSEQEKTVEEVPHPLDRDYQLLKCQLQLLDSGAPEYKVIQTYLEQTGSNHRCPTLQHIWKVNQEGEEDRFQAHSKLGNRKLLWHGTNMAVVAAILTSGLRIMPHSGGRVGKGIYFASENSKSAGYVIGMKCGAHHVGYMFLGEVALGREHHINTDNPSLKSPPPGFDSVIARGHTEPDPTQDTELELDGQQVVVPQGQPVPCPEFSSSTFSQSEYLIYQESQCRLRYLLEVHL
Kind of assay: DSF, full-length PARP-3 with or without DNA. The format is binding. The note with it: for TM: Figure 3c, BAD 1250 μM, in °C (unit assumed). As to the method:
as §1

T1 sequence (P09874 whole entry, the tested form may be a part): as the sequence (P09874 whole entry K633A, the tested form may be a part) above, with A633K counted along it

For the compound `NC(=O)c1cccc(C2OC(COP(=O)(O)OP(=O)(O)OCC3OC(n4cnc5c(N)ncnc54)C(O)C3O)C(O)C2O)c1` (stereo not drawn) [BAD, benzamide adenine dinucleotide], the “concentration at which inhibition of DNA-dependent PARP-1 automodification activity starts” value at PARP-1 was 50 µM. For the same compound, the TM at PARP-2 (PARP-2, no DNA, TM without BAD 47.71) came out at 47.47; on PARP-2 (PARP-2 with DNA (2.5 μM, 28-bp duplex 5'P), TM without BAD 45.44), 47.28; at Tankyrase 1 CAT (Figure 3d, TNK CAT 5 μM, BAD 4 mM, TM without BAD 53.71, in °C (unit assumed)), 57.42; on PARP-1 K633A (K633A with DNA (2.5 μM), TM without BAD 44.76) it was 44.86; on PARP-1 K633A (K633A, no DNA, TM without BAD 45.50), 45.32; on full-length PARP-1 WT [1] (Figure 3a, WT with DNA (2.5 μM, 26-bp duplex), TM without BAD 44.35) it was 47.65. In addition, the TM on full-length PARP-1 WT [1] (Figure 3a, WT, no DNA, TM without BAD 48.17) was determined as 48.19; on full-length PARP-1 WT [1] (Figure 3b, WT with DNA (2.5 μM, 26-bp duplex), TM without BAD 42.85) it was 45.99; on full-length PARP-1 WT [1] (Figure 3b, WT, no DNA, TM without BAD 47.41), 47.09; at full-length PARP-1 WT [1] (Figure 3c, PARP-1, no DNA, TM without BAD 47.93), 48.15; on full-length PARP-1 WT [1] (Figure 3c, PARP-1 with DNA (2.5 μM, 28-bp duplex), TM without BAD 44.45) it was 48.03; on PARP-3 (PARP-3, no DNA, TM without BAD 35.81), 35.54. For the same compound, the TM at PARP-3 (PARP-3 with DNA (2.5 μM, 47-bp duplex with central 5'P nick), TM without BAD 39.70) is recorded as 41.02. Besides, the “evidence of BAD binding in the DSF assay” value on PARP-2 (PARP-2, with or without DNA bearing 5'P) is recorded as “only showed evidence of BAD binding in the presence of activating DNA”; on PARP-3 (PARP-3, with or without DNA bearing 5'P) it was “only showed evidence of BAD binding in the presence of activating DNA”. Besides, the “binding to BAD based on the DSF analysis” value at Tankyrase 1 CAT (CAT of tankyrase 1 (no HD)) was “capable of binding”. In addition, the “TM shift in the presence of BAD and DNA” value on PARP-1 K633A (K633A (Zn3–WGR–HD interface mutation), relative to WT) was “substantial reduction in TM shift”. Also, on full-length PARP-1 WT [1] (with or without DNA (2.5 μM)), the “increase in the TM of full-length PARP-1 owing to BAD” value was “observed only with DNA present”. For the same compound, the “level of signal reduction of BAD spectrum peaks” value on full-length PARP-1 WT [2] (BAD 20 μM with PARP-1 40 μM and DNA 40 μM (dumbbell DNA, central 1 nt-gap)) was ~ 95%. In addition, the “BAD spectrum compared with BAD alone” value on full-length PARP-1 WT [2] (BAD 20 μM with PARP-1 40 µM, no DNA) is “essentially identical spectrum”.
